Reference: US10227331B2 (priority 2015, dated 2019)

How the values were obtained:
[1] = tested on: P. aeruginosa expressing IMP-1, efflux− (MB9799); assay: Efflux: concentration of MBL inhibitor which restores susceptibility to imipenem; format: cell-based, Pseudomonas aeruginosa; settings: imipenem at 2 μg/mL, in the presence of a class A, C, D serine β-lactamase inhibitor closely related to relebactam
Source text: (§1) The strain background is Pseudomonas aeruginosa PAO1.

IMP-1 = IMP-1 (Serratia marcescens, UniProt P52699); assay: biochemical; format: biochemical; settings: CCF2-FA substrate, 2 hours at 25° C; read-out: IMP-1 IC50
Outline: (§2)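 Two-hour, 25° C incubation of enzyme with inhibitor and CCF2-FA (7-hydroxycoumarin–cephalosporin–fluorescein). Fluorescence read-out; IC50 via 4-parameter fit.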

NDM-1 = NDM-1 (Klebsiella pneumoniae, UniProt C7C422); assay: biochemical; format: biochemical; settings: CCF2-FA substrate, 2 hours at 25° C; read-out: NDM-1 IC50
Outline: as §2

[2] = tested on: P. aeruginosa expressing IMP-1, efflux+ (MB9798); format: cell-based, Pseudomonas aeruginosa; settings: for P. aeruginosa expressing IMP-1, efflux+ (MB9798) MITC95: imipenem at 2 μg/mL, in the presence of a class A, C, D serine β-lactamase inhibitor closely related to relebactam; for Efflux ratio: ratio MITC95 PA_9798/MITC95 PA_9799
Source text: as §1

[3] = tested on: Serratia marcescens expressing IMP-1 (CL5741); format: cell-based; settings: with imipenem 1 μg/ml, 95% inhibition of bacterial growth; for Serratia marcescens MITC95: IMP-1 (CL5741)
Outline: (§3)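 Colonies from overnight 35 °C blood-agar cultures were suspended in saline, diluted 1:100 into 1.1× CAMHB and exposed to test compound with or without imipenem at 1 μg/ml. After 22–24 h at 35 °C, absorbance was read to find the concentration restoring imipenem susceptibility.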

[4] = tested on: Escherichia coli expressing NDM-1 (CLB30005, CLB30016); format: cell-based; settings: with imipenem 1 μg/ml, 95% inhibition of bacterial growth; for Escherichia coli MITC95: NDM-1 (CLB30016)
Outline: as §3

[5] = tested on: Klebsiella pneumoniae expressing VIM-1 (IHMA599644); format: cell-based; settings: with imipenem 1 μg/ml, 95% inhibition of bacterial growth; for Klebsiella pneumoniae MITC95: VIM-1 (IHMA599644)
Outline: as §3

VIM-1 = VIM-1 (Pseudomonas aeruginosa (strain ATCC 15692 / DSM 22644 / CIP 104116 / JCM 14847 / LMG 12228 / 1C / PRS 101 / PAO1), UniProt A0A0F7KYQ8); assay: biochemical; settings: CCF2-FA substrate, 2 hours at 25° C
Outline: as §2

Chain of NDM-1 (C7C422 whole entry, looked up, species assumed): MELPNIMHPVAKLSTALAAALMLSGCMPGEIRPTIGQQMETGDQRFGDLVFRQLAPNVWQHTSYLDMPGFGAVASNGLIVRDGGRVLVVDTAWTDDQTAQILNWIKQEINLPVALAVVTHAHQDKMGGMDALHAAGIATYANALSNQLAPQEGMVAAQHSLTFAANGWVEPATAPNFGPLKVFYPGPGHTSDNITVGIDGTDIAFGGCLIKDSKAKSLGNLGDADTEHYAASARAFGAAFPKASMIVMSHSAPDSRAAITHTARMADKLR
Chain of IMP-1 (P52699 whole entry, looked up, species assumed): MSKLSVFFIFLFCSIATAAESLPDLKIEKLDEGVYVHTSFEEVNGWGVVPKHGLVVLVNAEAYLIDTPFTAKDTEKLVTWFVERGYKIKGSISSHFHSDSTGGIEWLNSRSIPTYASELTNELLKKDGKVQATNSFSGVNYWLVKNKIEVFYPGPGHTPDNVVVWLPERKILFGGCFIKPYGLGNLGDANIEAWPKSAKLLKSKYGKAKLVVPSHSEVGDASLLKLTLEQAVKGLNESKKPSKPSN

SMILES | P. aeruginosa expressing IMP-1, efflux− (MB9799) MITC95 [1] [µM] | IC50 (IMP-1) [nM] | IC50 (NDM-1) [nM] | P. aeruginosa expressing IMP-1, efflux+ (MB9798) MITC95 [2] [µM] | Efflux ratio [2] | Serratia marcescens expressing IMP-1 (CL5741) MITC95 [3] [µM] | Escherichia coli expressing NDM-1 (CLB30016) MITC95 [4] [µM] | Klebsiella pneumoniae expressing VIM-1 (IHMA599644) MITC95 [5] [µM] | IC50 (VIM-1) [nM] | Serratia marcescens MITC95 [3] [µM] | Escherichia coli MITC95 [4] [µM] | Klebsiella pneumoniae MITC95 [5] [µM]
NS(=O)(=O)c1c(S(=O)(=O)C2CNC2)ccc(C2CCOCC2)c1-c1nn[nH]n1 [Example 222, 6-(azetidin-3-ylsulfonyl)-3-(tetrahydro-2H-pyran-4-yl)-2-(2H-tetrazol-5-yl)benzenesulfonamide] | 1.563 | 4.3 | 1.49 | 100 | 63.98 | 3.125 | 3.125 | 3.125 | 2.45 | – | – | –
NCCS(=O)(=O)c1ccc(-c2cccc3[nH]cnc23)c(-c2nn[nH]n2)c1S(N)(=O)=O [Example 198, 6-((2-aminoethyl)sulfonyl)-3-(1H-benzo[d]imidazol-4-yl)-2-(2H-tetrazol-5-yl)benzenesulfonamide] | 0.7813 | 0.374 | 0.238 | 0.7813 | 1.00 | 1.563 | 0.7813 | 1.563 | 0.206 | – | – | –
Nc1nc2cc(-c3ccc(S(=O)(=O)C4CNC4)c(S(N)(=O)=O)c3-c3nn[nH]n3)ccn2n1 [Example 217, 3-(2-amino-[1,2,4]triazolo[1,5-a]pyridin-7-yl)-6-(azetidin-3-ylsulfonyl)-2-(2H-tetrazol-5-yl) benzenesulfonamide] | 1.563 | 3.81 | 1.49 | 12.5 | 8.00 | 3.125 | 6.25 | 6.25 | 0.313 | – | – | –
Nc1cc(-c2cc(-c3ccc(S(=O)(=O)C4CNC4)c(S(N)(=O)=O)c3-c3nnn[nH]3)ccn2)ccn1 [Example 311, 3-(2′-amino-[2,4′-bipyridin]-4-yl)-6-(azetidin-3-ylsulfonyl)-2-(1H-tetrazol-5-yl)benzenesulfonamide] | 1.563 | 2.32 | 0.921 | 50 | 31.99 | – | – | – | 0.315 | 1.563 | 3.125 | 3.125
C[C@H](N)CS(=O)(=O)c1ccc(-c2cccc3[nH]cnc23)c(-c2nn[nH]n2)c1S(N)(=O)=O [Example 355] | 1.563 | 0.327 | 0.165 | 3.125 | 2.00 | – | – | – | 0.165 | 1.563 | 1.563 | 3.125
N[C@@H](CO)CS(=O)(=O)c1ccc(-c2cccc3[nH]cnc23)c(-c2nn[nH]n2)c1S(N)(=O)=O [Example 357, (S)-6-((2-amino-3-hydroxypropyl)sulfonyl)-3-(1H-benzo[d]imidazol-4-yl)-2-(2H-tetrazol-5-yl) benzenesulfonamide] | 1.563 | 0.294 | 0.163 | 0.7813 | 0.50 | – | – | – | 0.249 | 1.563 | 1.563 | 3.125
N#Cc1ccc(-c2ccc(S(=O)(=O)CCN)c(S(N)(=O)=O)c2-c2nnn[nH]2)cn1.O=C(O)C(F)(F)F [Example 144, 2-((4-(6-cyanopyridin-3-yl)-2-sulfamoyl-3-(1H-tetrazol-5-yl)phenyl)sulfonyl)ethanaminium 2,2,2-trifluoroacetate] | 1.563 | 5.59 | 7.21 | 50 | 31.99 | 3.125 | 0.7813 | 3.125 | 3.04 | – | – | –
NCCS(=O)(=O)c1ccc(-c2cccc(C(=O)N[C@@H]3CCNC3)c2N)c(-c2nn[nH]n2)c1S(N)(=O)=O [Example 377, (R)-2-amino-4′-((2-aminoethyl)sulfonyl)-N-(pyrrolidin-3-yl)-3′-sulfamoyl-2′-(2H-tetrazol-5-yl)-[1,1′-biphenyl]-3-carboxamide] | 1.563 | 1.88 | 1.77 | 3.125 | 2.00 | – | – | – | 0.671 | 1.563 | 1.563 | 3.125
Cn1c(N)nc2c(-c3ccc(S(C)(=O)=O)c(S(N)(=O)=O)c3-c3nn[nH]n3)cccc21 [Example 192, 3-(2-amino-1-methyl-1H-benzo[d]imidazol-4-yl)-6-(methylsulfonyl)-2-(2H-tetrazol-5-yl)benzenesulfonamide] | 0.7813 | 0.552 | 1 | 3.125 | 4.00 | 1.563 | 0.7813 | 3.125 | 0.194 | – | – | –
Nc1nccc(-c2ccc(S(=O)(=O)C3CNC3)c(S(N)(=O)=O)c2-c2nn[nH]n2)c1N [Example 224, 6-(azetidin-3-ylsulfonyl)-3-(2,3-diaminopyridin-4-yl)-2-(2H-tetrazol-5-yl)benzenesulfonamide] | 1.563 | 2.58 | 0.618 | 3.125 | 2.00 | 3.125 | 0.7813 | 3.125 | 1.29 | – | – | –
NCCS(=O)(=O)c1ccc(-c2cccc(C(=O)O)c2N)c(-c2nn[nH]n2)c1S(N)(=O)=O [Example 199, 2-Amino-4′-((2-aminoethyl)sulfonyl)-3′-sulfamoyl-2′-(2H-tetrazol-5-yl)-[1,1′-biphenyl]-3-carboxylic Acid] | 6.25 | 1.84 | 0.197 | 12.5 | 2.00 | 12.5 | 6.25 | 25 | 0.646 | – | – | –
